# Biological target: T1, human PDE5 (Homo sapiens, UniProt O76074)
# T1 construct: from tissue; host or cells: platelets from fresh blood of human donors (lysate, 10,000 g supernatant)
# Assay: Inhibition of the type 5 phosphodiesterase (PDE5) activity, modified SPA test with platelet lysate
# Assay type: biochemical
# Settings: PDE5 from human platelet lysate, 0.5 μM cGMP
# Method in brief: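 Human platelet lysate (10,000 g supernatant) as PDE5 source in SPA with 0.5 μM cGMP plus [3H]cGMP tracer, pH 7.4, 5 mM Mg2+, 1 μM motapizone and 10 nM PDE2 inhibitor; 10–20% conversion. 5 min preincubation, 15 min at 37 °C, stopped with SPA beads/IBMX. IC50 by non-linear regression.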
row,Structure (SMILES),IC50 [pM]
1,C[C@H](O)C(=O)N[C@H]1CC[C@H](NC(=O)c2c[nH]c3c(-c4c(OCC5CC5)ccc5c4OCO5)ncnc23)CC1 [Example 173],186
2,O=C(CO)N[C@H]1CC[C@@H](NC(=O)c2c[nH]c3c(-c4c(OCC5CC5)ccc5c4OCO5)ncnc23)CC1 [Example 174],389
3,C[C@H](O)C(=O)N[C@H]1CC[C@@H](NC(=O)c2c[nH]c3c(-c4c(OCC5CC5)ccc5c4OCO5)ncnc23)CC1 [Example 175],245
4,"C[C@H](O)C(=O)N1CCC(NC(=O)c2c[nH]c3c(-c4c(OCC5CC5)ccc5c4OCO5)ncnc23)CC1 [Example 176, 4-(5-Cyclopropylmethoxy-benzo[1,3]dioxol-4-yl)-5H-pyrrolo[3,2-d]pyrimidine-7-carboxylic acid [1-((S)-2-hydroxy-propanoyl)-piperidin-4-yl]amide]",245
5,"O=C(N[C@H]1CC[C@H](NC(=O)C2(O)CC2)CC1)c1c[nH]c2c(-c3c(OCC4CC4)ccc4c3OCO4)ncnc12 [Example 177, trans-4-(5-Cyclopropylmethoxy-benzo[1,3]dioxol-4-yl)-5H-pyrrolo[3,2-d]pyrimidine-7-carboxylic acid {4-[(1-hydroxy-cyclopropanecarbonyl)-amino]-cyclohexyl}-amide]",123
6,"O=C(N[C@H]1CC[C@@H](NC(=O)C2(O)CC2)CC1)c1c[nH]c2c(-c3c(OCC4CC4)ccc4c3OCO4)ncnc12 [Example 178, cis-4-(5-Cyclopropylmethoxy-benzo[1,3]dioxol-4-yl)-5H-pyrrolo[3,2-d]pyrimidine-7-carboxylic acid {4-[(1-hydroxy-cyclopropanecarbonyl)-amino]-cyclohexyl}-amide]",229
7,"O=C(NC1CCN(C(=O)C2(O)CC2)CC1)c1c[nH]c2c(-c3c(OCC4CC4)ccc4c3OCO4)ncnc12 [Example 179, 4-(5-Cyclopropylmethoxy-benzo[1,3]dioxol-4-yl)-5H-pyrrolo[3,2-d]pyrimidine-7-carboxylic acid {1-[1-(1-hydroxy-cyclopropyl)methanoyl]-piperidin-4-yl}-amide]",182
8,"O=C(N[C@@H]1CCN(C(=O)CO)C1)c1c[nH]c2c(-c3c(OCC4CC4)ccc4c3OCO4)ncnc12 [Example 180, 4-(5-Cyclopropylmethoxy-benzo[1,3]dioxol-4-yl)-5H-pyrrolo[3,2-d]pyrimidine-7-carboxylic acid [(R)-1-(2-hydroxy-ethanoyl)-pyrrolidin-3-yl]amide]",1200
9,"C[C@H](O)C(=O)N1CC[C@@H](NC(=O)c2c[nH]c3c(-c4c(OCC5CC5)ccc5c4OCO5)ncnc23)C1 [Example 181, 4-(5-Cyclopropylmethoxy-benzo[1,3]dioxol-4-yl)-5H-pyrrolo[3,2-d]pyrimidine-7-carboxylic acid [(R)-1-((S)-2-hydroxy-propanoyl)-pyrrolidin-3-yl]amide]",589
10,"O=C(N[C@@H]1CCN(C(=O)C2(O)CC2)C1)c1c[nH]c2c(-c3c(OCC4CC4)ccc4c3OCO4)ncnc12 [Example 182, 4-(5-Cyclopropylmethoxy-benzo[1,3]dioxol-4-yl)-5H-pyrrolo[3,2-d]pyrimidine-7-carboxylic acid {(R)-1-[1-(1-hydroxy-cyclopropyl)-methanoyl]-pyrrolidin-3-yl}-amide]",479
11,"O=C(N[C@H]1CCN(C(=O)CO)C1)c1c[nH]c2c(-c3c(OCC4CC4)ccc4c3OCO4)ncnc12 [Example 183, 4-(5-Cyclopropylmethoxy-benzo[1,3]dioxol-4-yl)-5H-pyrrolo[3,2-d]pyrimidine-7-carboxylic acid [(S)-1-(2-hydroxy-ethanoyl)-pyrrolidin-3-yl]amide]",1860
12,"C[C@H](O)C(=O)N1CC[C@H](NC(=O)c2c[nH]c3c(-c4c(OCC5CC5)ccc5c4OCO5)ncnc23)C1 [Example 184, 4-(5-Cyclopropylmethoxy-benzo[1,3]dioxol-4-yl)-5H-pyrrolo[3,2-d]pyrimidine-7-carboxylic acid [(S)-1-((S)-2-hydroxy-propanoyl)-pyrrolidin-3-yl]amide]",3160
